Assay results: patent publication US10952999B2, “Inhibitor of cyclin-dependent kinase CDK9” (GENFLEET THERAPEUTICS (SHANGHAI) INC., priority 2017, dated 2021)

Columns and labels:
[1] = tested on: human non-small cell lung cancer cells, human small cell lung cancer cells, lung adenocarcinoma cells, and breast cancer cells; assay: Cancer cell growth, cells of cancer type other than hematological cancer as a panel; assay type: cell-based; details: lung and breast cancer cells of table 3
Text: In the examples, we used acute myelocytic leukemia (AML) OCI-AML-3, acute promyelocytic leukemia cell line NB-4, MDS-RAEB (myelodysplastic syndrome-excess blasts type) cell line SKM-1, human leukemia cell Nomo-1, acute myeloid leukemia cell line MOLM14, acute myeloid leukemia cell line MOLM13, acute myeloid leukemia cell line MV4-11, acute myeloid leukemia cell line HL-60, acute myeloid leukemia cell line OCI-AML-2, histiocytic lymphoma U-937, acute B cell leukemia cell line MEC-1, acute B cell leukemia cell line MEC-2, acute megakaryoblastic leukemia CMK, hamster lung cell CHL, hamster ovary cell CHO, human non-small cell lung cancer cell H1975, human non-small cell lung cancer cell H358, human small cell lung cancer cell H209, human lung adenocarcinoma cell H1395, human non-small cell lung cancer cell PC-9, human lung cancer cell H3122, human non-small cell lung cancer cell H2122, human non-small cell lung cancer cell H1915, human lung adenocarcinoma cell H1355, human non-small cell lung cancer cell HCC827, human breast cancer cell MDA-MB-231, human breast cancer cell MDA-MB-468, human breast cancer cell MCF-7, human breast cancer cell T47D, human breast cancer cell SK-Br-3, the above cells were purchased from ATCC. […]

CDK3/cyclin E1 = target: T1, CDK3/cyclin E1 (Homo sapiens, UniProt Q00526); assay: Enzyme assay for inhibition of CDK protein in vitro (Z-LYTE); assay type: biochemical
T1 construct: purchased Invitrogen, USA
Procedure: (§1) Compounds 1 and 14 diluted in DMSO were mixed with detected CDK protein (Invitrogen, USA) respectively, incubated at room temperature for 30 minutes; and then mixed with Kinase/Z-LYTE™ Peptide Substrate Mixture (Invitrogen, USA) and 4×ATP. The mixed system was transferred to a 384-well white opaque plate to react for 1 hour at room temperature; 5 μL of Development Solution (Invitrogen, USA) was added to react at room temperature for 1 hour, and finally Stop Reagent (Invitrogen, USA) was added to terminate the reaction and MD SpectraMax I3× microplate reader (Molecular Devices, USA) was used to read fluorescence values.

CDK14/cyclin Y = target: T2, CDK14/cyclin Y (Homo sapiens, UniProt O94921); assay: as above; assay type: biochemical
T2 construct: purchased Invitrogen, USA
Procedure: as §1

CDK16/cyclin Y = target: T3, CDK16/cyclin Y (Homo sapiens, UniProt Q00536); assay: as above; assay type: biochemical
T3 construct: purchased Invitrogen, USA
Procedure: as §1

CDK9/cyclin T1 = target: T4, CDK9/cyclin T1 (Homo sapiens, UniProt P50750); assay: as above; assay type: biochemical
T4 construct: purchased Invitrogen, USA
Procedure: as §1

CDK8/cyclin C = target: T5, CDK8/cyclin C (Homo sapiens, UniProt P49336); assay: as above; assay type: biochemical
T5 construct: purchased Invitrogen, USA
Procedure: as §1

CDK11(non-active) = target: T6, CDK11(non-active) (Homo sapiens, UniProt Q9BWU1); assay: as above; assay type: biochemical
T6 construct: purchased Invitrogen, USA
Procedure: as §1

CDK7/cyclin HMNAT1 = target: T7, CDK7/cyclin HMNAT1 (Homo sapiens, UniProt P50613); assay: as above; assay type: biochemical
T7 construct: purchased Invitrogen, USA
Procedure: as §1

CDK1/cyclin B = target: T8, CDK1/cyclin B (Homo sapiens, UniProt P06493); assay: as above; assay type: biochemical
T8 construct: purchased Invitrogen, USA
Procedure: as §1

CDK5/p25 = target: T9, CDK5/p25 (Homo sapiens, UniProt Q00535); assay: as above; assay type: biochemical
T9 construct: purchased Invitrogen, USA
Procedure: as §1

CDK2/cyclin A = target: T10, CDK2/cyclin A (Homo sapiens, UniProt P24941); assay: as above; assay type: biochemical
T10 construct: purchased Invitrogen, USA
Procedure: as §1

[2] = tested on: acute myelocytic leukemia cell line (AML) HL-60; assay: Effect on cell cycle distribution, PI staining, flow cytometry; assay type: cell-based; details: HL-60, 0.01-0.1 μM, 12, 24 or 48 hours
Procedure: (§2) In order to study in which cycle the cells were prevented after administration, in the three cell lines, acute promyelocytic leukemia cell line NB-4, acute myelocytic leukemia cell line (AML) HL-60, and acute myelocytic leukemia cell line (AML) MV4-11, the effects of compound 1 on the cell cycle distribution of these cell lines were tested. […] The cell cycle distribution was measured by flow cytometry (BD FACS Calibur).

[3] = tested on: acute promyelocytic leukemia cell line NB-4; assay: as above; assay type: cell-based; details: NB-4, 0.01-0.1 μM, 12, 24 or 48 hours
Procedure: as §2

[4] = tested on: acute myelocytic leukemia cell line (AML) MV4-11; assay: as above; assay type: cell-based; details: MV4-11, 0.01-0.1 μM, 12, 24 or 48 hours
Procedure: as §2

[5] = tested on: acute myelocytic leukemia cell line (AML) HL-60; assay: Effect on apoptosis, Western Blot of PARP and Caspase 3 shear; assay type: cell-based; details: HL-60, 0.01-0.1 μM, 24 hours
Text: (§3) Western Blot was used to detect the effects of drugs in different concentrations on DNA repair enzyme polyadenylation diphosphate-ribose polymerase PARP and protein shear of cysteine-containing aspartate proteolytic enzyme Caspase 3 at different time intervals.

[6] = tested on: acute myelocytic leukemia cell line (AML) OCI-AML-3; assay: as above; assay type: cell-based; details: OCI-AML-3, 0.01-0.1 μM, 24 hours
Text: as §3

[7] = tested on: acute promyelocytic leukemia cell line NB-4; assay: as above; assay type: cell-based; details: NB-4, 0.01-0.1 μM, 24 hours
Text: as §3

[8] = tested on: acute myelocytic leukemia cell line (AML) MV4-11; assay: as above; assay type: cell-based; details: MV4-11, 0.01-0.1 μM, 24 hours
Text: as §3

T2 sequence (O94921 whole entry): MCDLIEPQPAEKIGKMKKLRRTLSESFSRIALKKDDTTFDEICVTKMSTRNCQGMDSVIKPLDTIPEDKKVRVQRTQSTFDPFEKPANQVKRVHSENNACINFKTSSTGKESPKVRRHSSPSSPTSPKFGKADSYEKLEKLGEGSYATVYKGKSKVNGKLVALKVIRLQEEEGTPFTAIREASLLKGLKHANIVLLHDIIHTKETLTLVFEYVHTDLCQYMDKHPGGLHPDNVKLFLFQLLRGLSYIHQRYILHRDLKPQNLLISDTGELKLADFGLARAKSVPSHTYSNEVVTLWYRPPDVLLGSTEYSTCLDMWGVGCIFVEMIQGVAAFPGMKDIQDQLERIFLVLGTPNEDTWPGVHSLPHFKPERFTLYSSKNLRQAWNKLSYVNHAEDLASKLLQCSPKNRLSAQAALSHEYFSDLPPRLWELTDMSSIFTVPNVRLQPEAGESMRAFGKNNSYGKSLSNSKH
T2 sequence (Q8ND76 whole entry partner): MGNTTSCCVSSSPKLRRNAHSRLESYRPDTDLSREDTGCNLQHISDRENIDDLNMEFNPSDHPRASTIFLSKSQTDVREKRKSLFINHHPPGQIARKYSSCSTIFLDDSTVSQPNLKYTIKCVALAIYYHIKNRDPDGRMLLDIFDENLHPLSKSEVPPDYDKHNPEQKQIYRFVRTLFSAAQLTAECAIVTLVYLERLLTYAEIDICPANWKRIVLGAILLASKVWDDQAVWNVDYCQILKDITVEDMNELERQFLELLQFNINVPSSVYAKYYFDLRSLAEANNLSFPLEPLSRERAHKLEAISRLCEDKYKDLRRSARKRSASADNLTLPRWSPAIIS
T7 sequence (P50613 whole entry): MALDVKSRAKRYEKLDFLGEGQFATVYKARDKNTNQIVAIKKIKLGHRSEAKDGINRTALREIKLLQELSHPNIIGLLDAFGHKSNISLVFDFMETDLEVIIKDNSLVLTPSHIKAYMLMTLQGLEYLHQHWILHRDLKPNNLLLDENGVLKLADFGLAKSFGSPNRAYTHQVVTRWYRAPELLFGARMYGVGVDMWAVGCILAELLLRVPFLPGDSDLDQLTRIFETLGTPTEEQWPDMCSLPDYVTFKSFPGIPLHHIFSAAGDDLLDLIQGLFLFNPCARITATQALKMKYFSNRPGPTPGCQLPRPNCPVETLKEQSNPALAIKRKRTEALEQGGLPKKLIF
T7 sequence (P51946 whole entry partner): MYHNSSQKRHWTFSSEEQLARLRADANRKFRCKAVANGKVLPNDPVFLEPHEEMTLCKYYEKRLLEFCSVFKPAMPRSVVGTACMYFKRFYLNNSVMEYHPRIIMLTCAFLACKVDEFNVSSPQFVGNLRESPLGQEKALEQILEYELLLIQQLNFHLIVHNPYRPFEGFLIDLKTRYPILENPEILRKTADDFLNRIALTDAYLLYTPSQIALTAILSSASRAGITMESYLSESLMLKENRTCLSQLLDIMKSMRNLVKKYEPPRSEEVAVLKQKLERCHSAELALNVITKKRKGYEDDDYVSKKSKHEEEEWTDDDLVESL
T7 sequence (P51948 whole entry partner): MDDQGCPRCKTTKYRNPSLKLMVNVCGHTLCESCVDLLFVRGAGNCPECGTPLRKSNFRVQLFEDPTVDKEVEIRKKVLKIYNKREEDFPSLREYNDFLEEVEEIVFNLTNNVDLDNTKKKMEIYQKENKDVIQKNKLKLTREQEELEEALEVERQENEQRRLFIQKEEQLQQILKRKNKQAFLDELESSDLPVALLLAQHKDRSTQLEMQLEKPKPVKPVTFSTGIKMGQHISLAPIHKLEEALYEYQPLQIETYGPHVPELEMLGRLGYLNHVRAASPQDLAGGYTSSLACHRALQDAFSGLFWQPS
T4 sequence (P50750 whole entry): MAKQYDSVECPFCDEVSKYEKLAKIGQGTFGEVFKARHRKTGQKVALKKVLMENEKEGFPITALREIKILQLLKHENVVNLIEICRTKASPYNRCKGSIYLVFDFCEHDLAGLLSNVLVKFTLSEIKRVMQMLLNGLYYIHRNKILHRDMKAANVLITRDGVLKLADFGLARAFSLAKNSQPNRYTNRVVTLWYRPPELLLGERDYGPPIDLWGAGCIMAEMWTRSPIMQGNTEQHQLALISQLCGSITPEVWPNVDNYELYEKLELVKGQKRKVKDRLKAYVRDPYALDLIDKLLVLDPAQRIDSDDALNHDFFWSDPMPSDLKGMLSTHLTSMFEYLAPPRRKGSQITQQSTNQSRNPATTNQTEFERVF
T4 sequence (O60563 whole entry partner): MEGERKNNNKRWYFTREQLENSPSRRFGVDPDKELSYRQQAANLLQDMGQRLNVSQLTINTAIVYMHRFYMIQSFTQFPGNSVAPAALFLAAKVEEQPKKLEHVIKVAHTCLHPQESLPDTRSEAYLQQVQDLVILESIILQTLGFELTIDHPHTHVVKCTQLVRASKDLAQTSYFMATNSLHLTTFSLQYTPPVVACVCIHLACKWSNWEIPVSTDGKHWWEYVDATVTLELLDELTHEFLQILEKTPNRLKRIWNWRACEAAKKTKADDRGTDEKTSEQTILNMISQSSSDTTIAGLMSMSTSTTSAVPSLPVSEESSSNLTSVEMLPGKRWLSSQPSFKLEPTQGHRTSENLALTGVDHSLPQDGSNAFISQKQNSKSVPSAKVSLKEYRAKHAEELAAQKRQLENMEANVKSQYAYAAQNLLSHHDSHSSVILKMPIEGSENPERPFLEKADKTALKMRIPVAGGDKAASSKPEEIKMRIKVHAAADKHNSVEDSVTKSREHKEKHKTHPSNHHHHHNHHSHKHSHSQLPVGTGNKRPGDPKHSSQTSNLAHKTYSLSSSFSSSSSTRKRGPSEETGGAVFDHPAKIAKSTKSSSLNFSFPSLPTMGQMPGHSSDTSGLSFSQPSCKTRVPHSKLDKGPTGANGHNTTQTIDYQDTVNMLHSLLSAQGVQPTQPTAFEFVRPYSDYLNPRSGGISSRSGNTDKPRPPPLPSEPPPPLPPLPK
T1 sequence (Q00526 whole entry): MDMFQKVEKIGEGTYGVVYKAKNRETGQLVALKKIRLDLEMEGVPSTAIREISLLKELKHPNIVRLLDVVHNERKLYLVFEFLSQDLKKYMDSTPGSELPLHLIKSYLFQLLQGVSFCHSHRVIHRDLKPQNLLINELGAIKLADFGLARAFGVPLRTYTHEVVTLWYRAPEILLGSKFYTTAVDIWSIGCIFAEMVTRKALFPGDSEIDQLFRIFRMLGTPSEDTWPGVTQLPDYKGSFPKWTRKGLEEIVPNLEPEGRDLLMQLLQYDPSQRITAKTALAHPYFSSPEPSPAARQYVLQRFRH
T1 sequence (P24864 whole entry partner): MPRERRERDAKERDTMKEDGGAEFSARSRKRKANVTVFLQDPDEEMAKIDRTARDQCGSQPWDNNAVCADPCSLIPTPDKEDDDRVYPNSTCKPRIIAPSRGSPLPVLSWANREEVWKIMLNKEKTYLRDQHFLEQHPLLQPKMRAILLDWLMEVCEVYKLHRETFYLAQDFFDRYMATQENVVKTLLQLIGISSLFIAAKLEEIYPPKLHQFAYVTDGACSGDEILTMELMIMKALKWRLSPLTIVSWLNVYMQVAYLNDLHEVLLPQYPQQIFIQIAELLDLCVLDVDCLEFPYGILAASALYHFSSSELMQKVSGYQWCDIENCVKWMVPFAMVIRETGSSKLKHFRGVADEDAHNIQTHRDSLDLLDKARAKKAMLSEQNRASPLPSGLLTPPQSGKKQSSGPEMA
T8 sequence (P06493 whole entry): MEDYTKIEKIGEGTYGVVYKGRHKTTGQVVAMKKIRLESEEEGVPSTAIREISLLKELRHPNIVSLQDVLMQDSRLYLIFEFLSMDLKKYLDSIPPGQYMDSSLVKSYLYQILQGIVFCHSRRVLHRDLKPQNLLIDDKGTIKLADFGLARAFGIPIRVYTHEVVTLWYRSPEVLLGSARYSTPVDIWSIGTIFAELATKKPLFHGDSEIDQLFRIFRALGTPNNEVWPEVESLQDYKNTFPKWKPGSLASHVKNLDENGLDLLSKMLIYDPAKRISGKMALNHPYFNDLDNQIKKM
T8 sequence (P14635 whole entry partner): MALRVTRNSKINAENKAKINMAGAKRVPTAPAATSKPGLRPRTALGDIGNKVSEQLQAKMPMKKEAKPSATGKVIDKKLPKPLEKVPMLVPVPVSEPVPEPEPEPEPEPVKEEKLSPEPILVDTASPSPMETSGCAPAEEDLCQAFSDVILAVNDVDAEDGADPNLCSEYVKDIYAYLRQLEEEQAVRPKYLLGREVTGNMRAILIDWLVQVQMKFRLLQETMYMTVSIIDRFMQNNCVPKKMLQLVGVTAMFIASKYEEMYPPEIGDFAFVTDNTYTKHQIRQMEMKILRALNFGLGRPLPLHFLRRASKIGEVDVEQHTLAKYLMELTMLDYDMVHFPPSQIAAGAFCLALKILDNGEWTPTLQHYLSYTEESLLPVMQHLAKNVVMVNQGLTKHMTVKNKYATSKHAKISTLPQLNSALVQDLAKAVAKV
T3 sequence (Q00536 whole entry): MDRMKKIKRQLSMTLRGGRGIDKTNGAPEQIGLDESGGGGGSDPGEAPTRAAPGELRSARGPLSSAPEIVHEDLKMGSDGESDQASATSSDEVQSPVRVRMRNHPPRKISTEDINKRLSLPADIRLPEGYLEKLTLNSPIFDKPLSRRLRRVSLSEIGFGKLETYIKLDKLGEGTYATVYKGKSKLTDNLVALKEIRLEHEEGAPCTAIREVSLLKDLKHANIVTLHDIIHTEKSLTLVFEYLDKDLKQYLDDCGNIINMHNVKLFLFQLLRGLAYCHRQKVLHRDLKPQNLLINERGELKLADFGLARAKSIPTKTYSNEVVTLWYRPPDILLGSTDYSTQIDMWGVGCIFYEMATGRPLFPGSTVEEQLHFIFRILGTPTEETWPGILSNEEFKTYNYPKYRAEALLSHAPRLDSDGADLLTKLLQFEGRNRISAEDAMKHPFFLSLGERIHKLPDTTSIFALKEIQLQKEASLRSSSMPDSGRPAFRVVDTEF
T3 sequence (Q8ND76 whole entry partner): as the sequence (Q8ND76 whole entry partner) above

IC50 (CDK3/cyclin E1): > 10 µM
IC50 (CDK14/cyclin Y): 2.71 µM
IC50 (CDK16/cyclin Y): 0.195 µM
IC50 (CDK9/cyclin T1): 0.000928 µM
IC50 (CDK8/cyclin C): > 10 µM
IC50 (CDK11(non-active)): > 10 µM
IC50 (CDK7/cyclin HMNAT1): 3.7 µM
IC50 (CDK1/cyclin B): 5.41 µM
IC50 (CDK5/p25): 6.95 µM
IC50 (CDK2/cyclin A): 6.85 µM
SMILES: COC[C@@H](C)N[C@H]1CC[C@H](Nc2cc(-c3csc(NCC4(C#N)CCOCC4)n3)c(Cl)cn2)CC1 [Compound 1, 4-(((4-(5-chloro-2-(((1R,4r)-4-(((R)-1-methoxypropyl-2-yl)amino)cyclohexyl)amino)pyridin-4-yl)thiazol-2-yl)amino)methyl)tetrahydro-2H-pyran-4-carbonitrile]
inhibitory effects on cancer cells tested (in words) [1]: significant inhibitory effects
effect on the cell cycle [2]: blocked the cells in G0-G1 phase
effect on the cell cycle [3]: blocked the cells in G0-G1 phase
effect on the cell cycle [4]: blocked the cells in G0-G1 phase
apoptosis (shear of PARP or Caspase 3) [5]: could cause apoptosis
apoptosis (shear of PARP or Caspase 3) [6]: could cause apoptosis
apoptosis (shear of PARP or Caspase 3) [7]: could cause apoptosis
apoptosis (shear of PARP or Caspase 3) [8]: could cause apoptosis
